# Assays:
# [1] = molecular target: T1, PDE5A1 (Homo sapiens, UniProt O76074); assay: PDE enzyme activity assay (HTRF cGMP), PDE5A; assay type: biochemical; details: recombinant enzyme; read-out: PDE5A1 inhibition (IC50)
# T1 construct: they are full-length with N-terminal GST tag; GST (N); purchased BPS Biosciences 60050; host or cells: baculovirus infected Sf9 cells
# [2] = system: acetylated histone 3 at Lys9 (AcH3K9); assay: HDAC activity using SHSY-5Y cell line (Western blot, histone 3 acetylation); assay type: cell-based, human; set-up: key: basal x1 means no increment (+); basal x1.4≤(++)<basal x2; basal x2≤(+++)<basal x3; basal x3≤(++++); N.E. means No Effect; details: SHSY-5Y cells, 24 hours
# Experimental: HDAC inhibition leads to the corresponding functional response, increase in AcH3 level. Therefore, the cellular assay to conclude HDAC activity was assessed by Western blot analysis using specific antibodies against acetylated histone 3 at Lys9 (AcH3K9). Cell cultures were treated at 100 nM, 500 nM, 1 μM and/or 5 μM with compounds of the invention or known PDE inhibitors during 24 hours and, Table 1 (below) describes the functional activity: histone 3 acetylation level (AcH3) vs basal (no treatment).
# A human neuroblastoma cell line (SHSY-5Y) was used. Cell line was obtained from ATCC (CRL-2266) and cultured in 35 mm plates (Becton Dickinson, NJ).
# The cells were grown to 90% confluence at 37° C. in an atmosphere of 5% CO2 and in Dulbecco's modified Eagle's medium supplemented with Glutamax (Gibco, Invitrogen, CA), 100 units/ml penicillin/streptomycin, 1×MEM nonessential amino acids and 10% fetal bovine serum (Gibco, Invitrogen, CA).
# Cells were collected and sonicated in a buffer containing a cold lysis buffer with protease inhibitors (0.2 M NaCl, 0.1 M HEPES (4-(2-hydroxyethyl)-1-piperazineethanesulfonic acid), 10% glycerol, 200 mM NaF, 2 mM Na4P2O7, 5 mM EDTA (ethylenediaminetetraacetic acid), 1 mM EGTA (ethylene glycol tetraacetic acid), 2 mM DTT (dithiothreitol), 0.5 mM PMSF (phenylmethylsulfonyl fluoride), 1 mM Na3VO4 and Complete Protease Inhibitor Cocktail, Roche Diagnostics), centrifuged at 14,000×g 4° C. for 20 min and the supernatant was aliquoted and stored at −80° C. Total protein concentrations were determined using the BioRad Bradford protein assay (BioRad Laboratories).
# Protein samples were mixed with Laemmli sample buffer, resolved onto Sodium Dodecyl Sulfate (SDS)-polyacrylamide gels and transferred to nitrocellulose membrane. The membranes were blocked with 5% milk, 0.05% Tween-20 in PBS (Phosphate-Buffered Saline) or TBS (Tris-Buffered Saline) followed by overnight incubation with the following primary antibodies: rabbit polyclonal anti-acetylated Histone 3 (acetyl K9) (Cell Signalling Technology), rabbit polyclonal anti-total Histone 3 (Millipore), in the corresponding buffer. All the antibodies were used at 1:1000 dilution except the mouse monoclonal anti-β-actin which was used at 1:50.000. Following two washes in TBS/Tween20 and one wash in TBS alone, immunolabeled protein bands were detected by using HRP-conjugated anti-rabbit or anti-mouse antibody (Santa Cruz Biotechnology; dilution 1:5.000) following an enhanced chemiluminescence system (ECL, GE Healthcare Bioscience, Buckinghamshire, UK), and autoradiographic exposure to HyperfilmtECL (GE Healthcare Bioscience). Quantity One™ software v.4.6.3 (Bio-Rad) was used for quantification.
# [3] = molecular target: T2, PDE9A (Homo sapiens, UniProt O76083); assay: PDE enzyme activity assay (HTRF cGMP), PDE9A; assay type: biochemical; details: recombinant enzyme; read-out: PDE9A inhibition (IC50)
# T2 construct: they are full-length with N-terminal GST tag; GST (N); purchased BPS Biosciences 60090; host or cells: baculovirus infected Sf9 cells
# T2 sequence (O76083 1-533 isoform O76083-2): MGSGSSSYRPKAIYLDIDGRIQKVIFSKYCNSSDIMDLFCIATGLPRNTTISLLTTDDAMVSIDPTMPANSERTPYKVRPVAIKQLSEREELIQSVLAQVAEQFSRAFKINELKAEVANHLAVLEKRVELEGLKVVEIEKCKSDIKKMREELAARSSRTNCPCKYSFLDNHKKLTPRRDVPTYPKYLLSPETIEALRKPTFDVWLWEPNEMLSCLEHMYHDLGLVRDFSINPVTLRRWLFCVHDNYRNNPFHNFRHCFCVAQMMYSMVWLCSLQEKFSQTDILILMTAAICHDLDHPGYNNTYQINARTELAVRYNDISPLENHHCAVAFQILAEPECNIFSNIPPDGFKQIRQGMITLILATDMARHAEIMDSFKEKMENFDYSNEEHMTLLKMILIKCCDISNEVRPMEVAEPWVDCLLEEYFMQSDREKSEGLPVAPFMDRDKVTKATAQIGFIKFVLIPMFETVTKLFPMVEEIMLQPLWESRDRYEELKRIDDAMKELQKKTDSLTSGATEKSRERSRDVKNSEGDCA
SMILES,IC50 [1],AcH3: increment in Histone 3 acetylation level vs basal ([2]; compound concentration 1 μM),IC50 [3],AcH3: increment in Histone 3 acetylation level vs basal ([2]; compound concentration 5 μM)
"CCCc1nn(C)c2c(=O)[nH]c(-c3cc(CC4CC(C(=O)Nc5ccccc5N)C4)ccc3OCC)nc12 (racemic) [Example 1-04, N-(2-aminophenyl)-3-[[4-ethoxy-3-(1-methyl-7-oxo-3-propyl-6H-pyrazolo[4,3-d]pyrimidin-5-yl)phenyl]methyl]cyclobutanecarboxamide]",0.01 to 1 µM,++++ (basal x3≤(++++)),–,–
"CCCc1nn(C)c2c(=O)[nH]c(-c3cc(C4CCC(C(=O)Nc5ccccc5N)CC4)ccc3OCC)nc12 (racemic) [Example 1-05, N-(2-aminophenyl)-4-[4-ethoxy-3-(1-methyl-7-oxo-3-propyl-6H-pyrazolo[4,3-d]pyrimidin-5-yl)phenyl]cyclohexanecarboxamide]",0.01 to 1 µM,+++ (basal x2≤(+++)<basal x3),–,–
"CCCc1nc(C)c2c(=O)[nH]c(-c3cc(CC4CC(C(=O)Nc5ccccc5N)C4)ccc3OCC)nn12 (racemic) [Example 2-04, N-(2-aminophenyl)-3-[[4-ethoxy-3-(5-methyl-4-oxo-7-propyl-3H-imidazo[5,1-f][1,2,4]triazin-2-yl)phenyl]methyl]cyclobutanecarboxamide]",< 0.01 µM,++++ (basal x3≤(++++)),–,–
"C[C@@H]1CN(Cc2ccc(C(=O)Nc3ccccc3N)cc2)C[C@H]1c1nc2c(cnn2C2CCCC2)c(=O)[nH]1 (racemic) [Example 3-01, N-(2-aminophenyl)-4-[[(3S,4S)-3-(1-cyclopentyl-4-oxo-5H-pyrazolo[3,4-d]pyrimidin-6-yl)-4-methyl-pyrrolidin-1-yl]methyl] benzamide]",–,++ (basal x1.4≤(++)<basal x2),0.01 to 1 µM,–
"Nc1ccccc1NC(=O)c1cnc(N2CCC(CN3CC(=O)N4C(Cc5c([nH]c6ccccc56)C4c4ccc5c(c4)OCO5)C3=O)CC2)nc1 (racemic) [Example 4-01, N-(2-aminophenyl)-2-(4-((6-(benzo[d][1,3]dioxol-5-yl)-1,4-dioxo-3,4,6,7,12,12a-hexahydropyrazino[1′,2′:1,6]pyrido[3,4-b]indol-2(1H)-yl)methyl)piperidin-1-yl)pyrimidine-5-carboxamide]",1 to 10 µM,–,–,++ (basal x1.4≤(++)<basal x2)
"CCCc1nn(C)c2c(=O)[nH]c(-c3cc(S(=O)(=O)N4CCN(c5ncc(C(=O)Nc6ccccc6N)cn5)CC4)ccc3OCC)nc12 [Example 1-01, N-(2-aminophenyl)-2-[4-[4-ethoxy-3-(1-methyl-7-oxo-3-propyl-6H-pyrazolo[4,3-d]pyrimidin-5-yl)phenyl]sulfonylpiperazin-1-yl]pyrimidine-5-carboxamide]",0.01 to 1 µM,+++ (basal x2≤(+++)<basal x3),–,–
CCCc1nn(C)c2c(=O)[nH]c(-c3cc(S(=O)(=O)NC4CCN(c5ncc(C(=O)Nc6ccccc6N)cn5)CC4)ccc3OCC)nc12 [Example 1-02],0.01 to 1 µM,+++ (basal x2≤(+++)<basal x3),–,–
CCCc1nn(C)c2c(=O)[nH]c(-c3cc(S(=O)(=O)NCc4ccc(C(=O)Nc5ccccc5N)cc4)ccc3OCC)nc12 [Example 1-03],0.01 to 1 µM,++++ (basal x3≤(++++)),–,–
"CCCc1nn(C)c2c(=O)[nH]c(-c3cc(C4CCC(C(=O)Nc5ccccc5N)CC4)ccc3OCC)nc12 (centres unmarked) [Example 1-06, N-(2-aminophenyl)-4-[4-ethoxy-3-(1-methyl-7-oxo-3-propyl-6H-pyrazolo[4,3-d]pyrimidin-5-yl)phenyl]cyclohexanecarboxamide]",0.01 to 1 µM,+++ (basal x2≤(+++)<basal x3),–,–
CCCc1nn(C)c2c(=O)[nH]c(-c3cc(Cc4ccc(C(=O)Nc5ccccc5N)s4)ccc3OCC)nc12 [Example 1-08],0.01 to 1 µM,++++ (basal x3≤(++++)),–,–
"CCCc1nn(C)c2c(=O)[nH]c(-c3cc(Cc4ccc(C(=O)Nc5cc(-c6cccs6)ccc5N)cc4)ccc3OCC)nc12 [Example 1-13, N-[2-amino-5-(2-thienyl)phenyl]-4-[[4-ethoxy-3-(1-methyl-7-oxo-3-propyl-6H-pyrazolo[4,3-d]pyrimidin-5-yl)phenyl]methyl]benzamide]",1 to 10 µM,++ (basal x1.4≤(++)<basal x2),–,–
"CCCc1nn(C)c2c(=O)[nH]c(-c3cc(CC(=O)Nc4ccccn4)ccc3OCC)nc12 [Example 1-15, 2-[4-ethoxy-3-(1-methyl-7-oxo-3-propyl-6H-pyrazolo[4,3-d]pyrimidin-5-yl)phenyl]-N-(2-pyridyl)acetamide]",0.01 to 1 µM,++ (basal x1.4≤(++)<basal x2),–,–
CCCc1nn(C)c2c(=O)[nH]c(-c3cc(Cc4ccc(C(=O)N5CCNC(=O)C5)cc4)ccc3OCC)nc12 [Example 1-19],0.01 to 1 µM,++ (basal x1.4≤(++)<basal x2),–,–
CCCc1nn(C)c2c(=O)[nH]c(-c3cc(Cc4ccc(C(=O)Nc5cscc5N)cc4)ccc3OCC)nc12 [Example 1-20],1 to 10 µM,++ (basal x1.4≤(++)<basal x2),–,–
"CCCc1nc(C)c2c(=O)[nH]c(-c3cc(S(=O)(=O)N4CCN(c5ncc(C(=O)Nc6ccccc6N)cn5)CC4)ccc3OCC)nn12 [Example 2-02, N-(2-aminophenyl)-2-[4-[4-ethoxy-3-(5-methyl-4-oxo-7-propyl-3H-imidazo[5,1-f][1,2,4]triazin-2-yl)phenyl]sulfonylpiperazin-1-yl]pyrimidine-5-carboxamide]",< 0.01 µM,++++ (basal x3≤(++++)),–,–
CCCc1nc(C)c2c(=O)[nH]c(-c3cc(S(=O)(=O)NC4CCN(c5ncc(C(=O)Nc6ccccc6N)cn5)CC4)ccc3OCC)nn12 [Example 2-03],< 0.01 µM,++ (basal x1.4≤(++)<basal x2),–,–
"CCCc1nc(C)c2c(=O)[nH]c(-c3cc(Cc4ccc(C(=O)Nc5cscc5N)cc4)ccc3OCC)nn12 [Example 2-07, N-(4-amino-3-thienyl)-4-[[4-ethoxy-3-(5-methyl-4-oxo-7-propyl-3H-imidazo[5,1-f][1,2,4]triazin-2-yl)phenyl]methyl]benzamide]",0.01 to 1 µM,++ (basal x1.4≤(++)<basal x2),–,–
"CCCc1nn(C)c2c(=O)[nH]c(-c3cc(S(=O)(=O)N4CCN(C)CC4)ccc3OCC)nc12 [Sildenafil, reference compound]",–,N.E.,–,–

# Source: US9969744B2, “Compounds for use in cognition improvement” (FUNDACIÓN PARA LA INVESTIGACIÓN MÉDICA APLICADA, priority 2014, dated 2018)
